{
  "source": "patent US7872041B2",
  "about": "“Use of rotigotine for treating and preventing Parkinson's plus syndrome” (priority 2004, dated 2011)",
  "key": {"[1]": {"system": "MPTP mouse model", "assay": "Subacute MPTP model, dopamine transporter density in the striatum", "assay_type": "in vivo, mice", "procedure": "To induce intoxication, mice were administered 80 mg/kg of the neurotoxin 1-methyl-4-phenyl-1,2,3,6-tetrahydro-pyridine (MPTP) (in portions of 20 mg/kg in two-hourly intervals, groups 3-6 in FIGS. 1 and 2) resulting in the degeneration of about 50-60% of the neurons of the substantia nigra (maximum degeneration in group 3 in FIGS. 1 and 2). Rotigotine was administered daily in doses of 0.3, 1 or 3 mg/kg respectively over 7 days as a so-called ‘slow-release formulation’ (see embodiment 2) (groups 4-6 in FIGS. 1 and 2). A group of MPTP-treated animals (group 3) was given rotigotine-vehicle solution (see embodiment 2 without rotigotine HCl) and served as a reference. The controls were groups 1, 2 and 7, whereby group 1 is not given any treatment, group 2 is treated with the vehicle-solutions for MPTP and rotigotine, and group 7 was exclusively given rotigotine. The animals were sacrificed on day 8, their brains removed and frozen. Frozen sections were incubated with 100 pm[^125I] PE21 ([^125I]-(E)-N(3-iodoprop-2-enyl)-2β-carboxymethyl-3β-(4′-methylphenyl)-nortropane) in a phosphate buffer, pH 7.4 in order to mark the quantity of dopamine transporters still present in the striatum as an indicator of the quantity of functioning nerve endings. […] This is clear evidence of the neuroprotective properties of the substance (FIG. 1 and 2)."}, "[2]": {"system": "MPTP model in monkeys (macaques)", "assay": "Progressive MPTP primate model, pilot study", "assay_type": "in vivo", "procedure": "In the MPTP model used, which reflects the progressive course of dopaminergic cell destruction in primates, monkeys (macaques) were injected with subthreshold toxic doses of MPTP over several days. The parkinsonian symptoms developed in the model over a period of approximately 2 weeks. As soon as a specific degree of damage was reached, daily injections of rotigotine were provided in a formulation giving rise to a continuous plasma level over a 24 hour period. The injections of MPTP were stopped as soon as the motor activity in the controls had reduced by a specific degree (approximately 5 days later). The animals' behavior was evaluated every day. […] At the end of rotigotine application or at the end of the wash-out phase, in each case one group of animals was sacrificed and the condition of the basal ganglia investigated histologically and biochemically. The density of the nerve endings in the striatum of the treated animals was much higher than it was in the untreated animals."}, "[3]": {"details": "transdermal administration, WO 02/089777 and other authors; cited from earlier work"}, "[4]": {"system": "MPTP mouse model", "assay": "Acute MPTP model, FluoroJade staining of degenerating neurons", "assay_type": "in vivo, mice", "details": "for Number of degenerating neurons: FluoroJade staining", "procedure": "The results set forth below in Table 2 indicate the number of acutely degenerating neurons in the MPTP mouse model shown with FluoroJade staining with and without treatment with a single administration of rotigotine:\nTo induce intoxication, mice were administered 80 mg/kg of the neurotoxin 1-methyl-4-phenyl-1,2,3,6-tetrahydro-pyridine (MPTP) (in portions of 20 mg/kg at two-hourly intervals) resulting in the degeneration of approximately 50-60% of the neurons in the substantia nigra. Approximately 16 hours previously, rotigotine was added in doses of 0.3, 1 or 3 mg/kg respectively as a so-called ‘slow-release formulation’ (see embodiment 2). Diffusion and absorption latencies mean that rotigotine is optimally available when MPTP is added. Animals that were only given the vehicle solution (see embodiment 2 without rotigotine HCl) served as controls. After 24 hours, the animals were sacrificed and the brains fixed. The brain sections were stained with FluoroJade for the identification of degenerating cells. Immunohistochemical marking of the tyrosine hydroxylase was used to identify dopaminergic neurons. […] The number of the degenerating neurons was approximately 50% lower after the application of rotigotine, which is further confirmation of the neuroprotective properties of the substance (Table 2)."}},
  "data": [
    {"smiles": "CCCN(CCc1cccs1)[C@H]1CCc2c(O)cccc2C1", "note": "[rotigotine, (−)5,6,7 ,8-tetrahydro-6-[propyl[2-(2-thienyl)ethyl]amino]-1-naphthol]", "values": [
      {"measurement": "Survival of the neurons and the nerve endings", "setting": "[1]; 0.3, 1 or 3 mg/kg daily over 7 days, slow-release formulation", "value": "improves the survival of the neurons and the nerve endings in relation to the dose"},
      {"measurement": "Dopaminergic innervation of the striatum (density of the dopamine transporter)", "setting": "[1]; subacute phase after MPTP", "value": "virtually completely retained or restored"},
      {"measurement": "Content of preproenkephalin", "setting": "[2]; after the treatment and after the wash-out phase", "value": "tendency toward normalization"},
      {"measurement": "Density of the nerve endings in the striatum", "setting": "[2]; treated versus untreated animals", "value": "much higher"},
      {"measurement": "Motor activity of the animals", "setting": "[2]; under treatment with daily injections and in the following wash-out phase", "value": "significantly improved"},
      {"measurement": "UPDRS scores", "setting": "[3]", "value": "improvement"},
      {"measurement": "Number of degenerating neurons", "setting": "[4]; MPTP intoxication + rotigotine 0.3 mg/kg, single administration", "value": 66.7},
      {"measurement": "Number of degenerating neurons", "setting": "[4]; MPTP intoxication + rotigotine 1.0 mg/kg, single administration", "value": 76.8},
      {"measurement": "Number of degenerating neurons", "setting": "[4]; MPTP intoxication + rotigotine 3.0 mg/kg, single administration", "value": 34.9},
      {"measurement": "Number of degenerating neurons", "setting": "[4]; MPTP-vehicle + rotigotine 3.0 mg/kg (no MPTP)", "value": 3.8},
      {"measurement": "Number of degenerating neurons lower after application of rotigotine", "setting": "[4]; acute MPTP model, versus MPTP without rotigotine", "value": "approximately 50%"},
      {"measurement": "Number of degenerating neurons in the mesencephalon", "setting": "[4]; acute phase after MPTP, after administration of rotigotine", "value": "reduced"},
      {"measurement": "Staining of the tyrosine hydroxylase (dopaminergic neurons)", "setting": "[4]; treated versus untreated animals, 24 hours after MPTP", "value": "did not identify any differences between the treated and untreated animals"}
    ]}
  ]
}
